# How the values were obtained:
# Assay in all cases: relative viability (nuclei count vs DMSO), 5 days (fraction); higher = more cells survive
# [1] = compound: CC(C)=CC[C@@H](O)C1=CC(=O)c2c(O)ccc(O)c2C1=O [Shikonin] + CC(=O)Nc1cccc(-n2c(=O)n(C3CC3)c(=O)c3c(Nc4ccc(I)cc4F)n(C)c(=O)c(C)c32)c1 [Trametinib] (partner 0.02 µM)
# Procedure, shortened: (§1)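 For relative viability, nuclei counts in treated wells were divided by those in vehicle wells. Lung cancer cell lines had been pin-tool dosed in 1536-well plates the day after seeding and cultured for 5 days, then fixed and stained in one step (final 0.05% Triton X-100, 1% formaldehyde, 1 ug/ml Hoechst) and imaged at 4×. Doses were one drug alone or a fixed anchor-drug dose plus five library-drug doses (not always all listed) in √10 steps, and values are duplicate-plate medians.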
# [2] = compound: CC(C)=CC[C@@H](O)C1=CC(=O)c2c(O)ccc(O)c2C1=O [Shikonin] + CC(C)C[C@H](NC(=O)[C@H](Cc1ccccc1)NC(=O)c1cnccn1)B(O)O [Bortezomib] (partner 0.002 µM)
# Procedure, shortened: as §1
# [3] = compound: CC(C)N(CCCNC(=O)Nc1ccc(C(C)(C)C)cc1)C[C@H]1O[C@@H](n2ccc3c(N)ncnc32)[C@H](O)[C@@H]1O + CC1(C)CCC(c2ccc(Cl)cc2)=C(CN2CCN(c3ccc(C(=O)NS(=O)(=O)c4ccc(N[C@H](CCN5CCOCC5)CSc5ccccc5)c(S(=O)(=O)C(F)(F)F)c4)cc3)CC2)C1 [Navitoclax] (partner 0.5 µM)
# Procedure, shortened: as §1
# [4] = compound: CC(C)N(CCCNC(=O)Nc1ccc(C(C)(C)C)cc1)C[C@H]1O[C@@H](n2ccc3c(N)ncnc32)[C@H](O)[C@@H]1O + Cc1cc(Nc2cc(N3CCN(C)CC3)nc(Sc3ccc(NC(=O)C4CC4)cc3)n2)n[nH]1 [Tozasertib] (partner 0.1 µM)
# Procedure, shortened: as §1
cell line,measurement,setting,value
UMC-11,relative viability,[1]; first compound 0.01 µM,0.573
same,relative viability,[1]; first compound 0.1 µM,0.802
same,relative viability,[1]; first compound 0.3162 µM,0.656
same,relative viability,[1]; first compound 1 µM,0.793
same,relative viability,[2]; first compound 0.01 µM,0.773
same,relative viability,[2]; first compound 0.1 µM,0.854
same,relative viability,[2]; first compound 0.3162 µM,0.675
same,relative viability,[2]; first compound 1 µM,0.812
same,relative viability,[3]; first compound 0.08 µM,0.296
same,relative viability,[3]; first compound 0.253 µM,0.329
same,relative viability,[3]; first compound 0.8 µM,0.319
same,relative viability,[3]; first compound 2.53 µM,0.302
same,relative viability,[3]; first compound 8 µM,0.294
same,relative viability,[4]; first compound 0.08 µM,0.185
same,relative viability,[4]; first compound 0.253 µM,0.193
same,relative viability,[4]; first compound 0.8 µM,0.231
same,relative viability,[4]; first compound 2.53 µM,0.218
same,relative viability,[4]; first compound 8 µM,0.175

# Source: the supplement of paper PMC10307832
